Laboratory results from PMC5108039, “Functional and Structural Characterization of a Novel HLA-DRB1*04:01-Restricted α-Enolase T Cell Epitope in Rheumatoid Arthritis” (Frontiers in Immunology, 2016).
Square brackets hold non-standard residues; d marks the D form. Peptide text beside a SMILES is read from it. Cit = NC(=O)NCCC[C@H](N)C(=O)O

Tests used:
[1] = biological target: HLA-DRB1*04:04 (Homo sapiens, UniProt P01903+P01911, A100R/A169T/F76Y/I96L/K127E/L162R/M171V/N62H/P40V/Q125Y/R42H/S133A/S149N/S66Y/V209L/W38E); assay: Competition peptide-binding assay, HLA-DRB1*04:04; details: competition with 0.02 μM biotinylated GAD65 270–285, plate-bound HLA-DRB1*04:04, increasing peptide concentrations; read-out: IC50 *04:04
Method: Stepwise binding analysis of 15-mer peptides derived from both native and citrullinated α-enolase to HLA-DRB1*01, *04:01, and *04:04 was performed using the ProImmune Class II Reveal assay (ProImmune, Oxford, UK). Relevant peptides were thereafter synthesized by GenScript (Piscataway, NJ, USA) and used for competition peptide-binding assays. […] Finally, peptide-binding affinity to the three different HLA alleles was assessed in direct binding assays in which N-terminally biotinylated epitopes (GenScript, Piscataway, NJ, USA) were incubated at concentrations from 5 to 0.05 μM with plate-bound relevant HLA-DRB1 molecules in the absence of a competitor peptide ([22]). The inflection point of the binding curve of a known binding epitope was used as a cutoff to separate weakly binding epitopes from background. […]

[2] = biological target: HLA-DRB1*01:01 (Homo sapiens, UniProt P01903+P01911, A100R/D57E/F55L/F60I/F76Y/I96L/L162R/M171V/P40L/Q125E/R42F/V115G/Y59C); assay: Competition peptide-binding assay, HLA-DRB1*01:01; details: competition with 0.02 μM biotinylated HA306–318, plate-bound HLA-DRB1*01:01, increasing peptide concentrations; read-out: IC50 *01:01
Method: Stepwise binding analysis of 15-mer peptides derived from both native and citrullinated α-enolase to HLA-DRB1*01, *04:01, and *04:04 was performed using the ProImmune Class II Reveal assay (ProImmune, Oxford, UK). Relevant peptides were thereafter synthesized by GenScript (Piscataway, NJ, USA) and used for competition peptide-binding assays. […] Finally, peptide-binding affinity to the three different HLA alleles was assessed in direct binding assays in which N-terminally biotinylated epitopes (GenScript, Piscataway, NJ, USA) were incubated at concentrations from 5 to 0.05 μM with plate-bound relevant HLA-DRB1 molecules in the absence of a competitor peptide ([22]). The inflection point of the binding curve of a known binding epitope was used as a cutoff to separate weakly binding epitopes from background.
We decided to make use of HLA-DRB1*01:01 as a representative model for HLA-DRB1*01.

[3] = test system: cultured PBMCs from RA patients; assay: Bead-based multiplex cytokine assay in culture supernatants; format: cell-based, human; details: supernatants of cultured PBMCs, day 5, Luminex panel IL-10, IL-13, IL-17A, IL-17F, TNF-α, IFN-γ
Method: A bead-based multiplex cytokine assay was custom-designed by Invitrogen for simultaneous detection of IL-10, IL-13, IL-17A, IL-17F, TNF-α, and IFN-γ on a Luminex platform. Supernatants were collected at day 5 and stored at −80°C until used. Supernatants from RA patients were analyzed using the Luminex 100 system according to the manufacturer’s instructions.

[4] = biological target: HLA-DRB1*04:01 (Homo sapiens, UniProt P01903+P01911, A100K/A169T/F76Y/I96L/K127E/L162R/M171V/N62H/P40V/Q125Y/R42H/S133A/S149N/S66Y/V115G/V209L/W38E); assay: biochemical
Method: The HLA-DR binding capacity of the identified peptides was assessed through in vitro competition binding assays in which native and citrullinated candidate epitopes were tested for their capacity to displace an established reference peptide (Figure 2; Table 2).

| SMILES | IC50 [1] | IC50 [2] | cytokine response in supernatants compared to the native peptide form [3] | IC50 [4] |
| --- | --- | --- | --- | --- |
| CC[C@H](C)[C@H](NC(=O)[C@H](Cc1c[nH]cn1)NC(=O)[C@H](CCC(=O)O)NC(=O)[C@@H](NC(=O)[C@H](C)NC(=O)[C@H](CCCCN)NC(=O)[C@H](CO)NC(=O)[C@@H](NC(=O)CNC(=O)[C@H](CCCCN)NC(=O)CNC(=O)[C@H](CCSC)NC(=O)[C@H](Cc1ccc(O)cc1)NC(=O)[C@@H](N)CCCNC(N)=O)C(C)C)C(C)C)C(=O)N[C@@H](CC(N)=O)C(=O)O [cit56] (H-[Cit]YMGKGVSKAVEHIN-OH; N-terminus and C-terminus assumed) | > 50 µM | > 50 µM | strong responses |  |
| CC(C)C[C@H](NC(=O)CNC(=O)[C@H](CCCCN)NC(=O)[C@H](CO)NC(=O)[C@@H](N)[C@@H](C)O)C(=O)N[C@@H](Cc1ccccc1)C(=O)N[C@@H](CCCNC(=N)N)C(=O)N[C@@H](C)C(=O)N[C@@H](C)C(=O)N[C@H](C(=O)N1CCC[C@H]1C(=O)N[C@@H](CO)C(=O)NCC(=O)N[C@@H](C)C(=O)N[C@@H](CO)C(=O)O)C(C)C [peptide 26] (H-TSKGLFRAAVPSGAS-OH) | 0.5 µM | 1.4 µM |  | 4 µM |
| CC(C)C[C@H](NC(=O)[C@@H]1CCCN1C(=O)[C@H](CC(N)=O)NC(=O)[C@H](CCCNC(=N)N)NC(=O)[C@H](Cc1ccccc1)NC(=O)[C@H](CC(N)=O)NC(=O)[C@H](CCCNC(=N)N)NC(=O)CNC(=O)[C@H](C)NC(=O)[C@H](Cc1ccccc1)NC(=O)[C@H](CCCCN)NC(=O)[C@H](C)NC(=O)[C@@H](N)CCCCN)C(=O)N[C@@H](C)C(=O)N[C@@H](CCCCN)C(=O)O [peptide 420] (H-KAKFAGRNFRNPLAK-OH) | 25 µM | > 50 µM |  | > 50 µM |
